The test relates to razor bumps. As to the kind of experiment: proof of concept use of acne gels, creams, suspension and lotions immediately after shaving to prevent razor bumps. The test is classed as in vivo, human. Conditions: concentration down to at least 0.75% within the gel.

The values below come from patent US20230000892A1, “Solution, Lotion, Gel, and Cream for Use to Prevent Razor Bumps” (priority 2021, published 2023).

As for clindamycin phosphate, the “adequacy of lower concentration for preventing razor bumps” value is on record as “sufficiently adequate”.
